Read-outs that look alike come from different tables or passages of the source.

The record followed here is patent publication US9096559B2, “4-carboxybenzylamino derivatives as histone deacetylase inhibitors” (Merck Sharp & Dohme Corp., priority 2007, dated 2015).

Series [1] deals with IKr ion channel (Homo sapiens (Human), UniProt Q12809). The series is described as follows: Displacement binding assay using radio-labeled MK-499. The following applies: 10 μM. The source says:
(§1) The ancillary pharmacology profiles of the SHI-1:2 carbamate analogs were also gathered to investigate off-target activities (Table 12).

Series [2] has as its system HCT-116. Nature of the series: HCT-116 anti-proliferation (GI50). It is filed as cell-based, human. To be noted: means of n ≧ 2 experiments. Here is the method: (§2) The novel compounds of the present invention were tested for their ability to inhibit proliferation of the human cervical cancer (HeLa) and colon carcinoma (HCT116) cells.
In this assay, also referred to as the Vialight Assay, cellular ATP levels are measured as a means of quantifying cellular proliferation. This assay makes use of a bioluminescent method from Cambrex (ViaLight PLUS, cat. #LT07-121). In the presence of ATP, luciferase converts luciferin to oxyluciferin and light. The amount of light produced (emission at 565 nm) is measured and correlates with a relative amount of proliferation. Human cervical cancer (HeLa) or colon carcinoma (HCT116) cells were incubated with vehicle or increasing concentrations of compound for 48, 72 or 96 hours. Cell proliferation was quantified by adding the cell lysis reagent (provided in the Vialight assay kit) directly to culture wells, followed by addition of the ATP-monitoring reagent (containing luciferase/luciferin). The amount of light produced is then measured (emission at 565 nm). The quantity of light produced, as measured by […], is directly proportional to the number of living cells in culture. […]

Series [3] has as its target CYP2D6 (Homo sapiens (Human), UniProt P10635). Nature of the series: CYP inhibition potential, CYP2D6. It is filed as in vitro ADME.
Text: as §1

Series [4] deals with CYP2C9 (Homo sapiens (Human), UniProt P11712). Nature of the series: CYP inhibition potential, CYP2C9. The format is in vitro ADME.
Text: as §1

Series [5] concerns the target CYP3A4 (Homo sapiens (Human), UniProt P08684). The series is described as follows: CYP inhibition potential, CYP3A4. It is filed as in vitro ADME.
Text: as §1

In series [6] the target is histone deacetylase, subtype 1 (HDAC1) (Homo sapiens (Human), UniProt Q13547). Nature of the series: HDAC1-Flag in vitro deacetylation assay. The format is biochemical. An outline of the steps: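 Enzyme: Flag epitope-tagged human HDAC1 complex immunopurified from stably expressing mammalian cells. Substrate carries an acetylated lysine side chain; deacetylation yields a fluorophore proportional to activity, measured as fluorescence.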

Series [7] concerns human cervical cancer (HeLa) and colon carcinoma (HCT116) cells. The series is described as follows: ATP (Vialight) cell proliferation assay, 72 hr. The format is cell-based. The following applies: IP = inflection point, cell line not given, read-out: Prol-72 hr IP (inflection point). Here is the method: as §2
In this assay, also referred to as the Vialight Assay, cellular ATP levels are measured as a means of quantifying cellular proliferation. This assay makes use of a bioluminescent method from Cambrex (ViaLight PLUS, cat. #LT07-121). In the presence of ATP, luciferase converts luciferin to oxyluciferin and light. The amount of light produced (emission at 565 nm) is measured and correlates with a relative amount of proliferation. Human cervical cancer (HeLa) or colon carcinoma (HCT116) cells were incubated with vehicle or increasing concentrations of compound for 48, 72 or 96 hours. Cell proliferation was quantified by adding the cell lysis reagent (provided in the Vialight assay kit) directly to culture wells, followed by addition of the ATP-monitoring reagent (containing luciferase/luciferin). The amount of light produced is then measured (emission at 565 nm). The quantity of light produced, as measured by […], is directly proportional to the number of living cells in culture.

[8] abbreviates: means of n ≧ 2 experiments, read-out: HDAC1 IC50.
[9] abbreviates: IP = inflection point, read-out: HDAC1 IP (inflection point).

IKr ion channel, sequence (Q12809 whole entry): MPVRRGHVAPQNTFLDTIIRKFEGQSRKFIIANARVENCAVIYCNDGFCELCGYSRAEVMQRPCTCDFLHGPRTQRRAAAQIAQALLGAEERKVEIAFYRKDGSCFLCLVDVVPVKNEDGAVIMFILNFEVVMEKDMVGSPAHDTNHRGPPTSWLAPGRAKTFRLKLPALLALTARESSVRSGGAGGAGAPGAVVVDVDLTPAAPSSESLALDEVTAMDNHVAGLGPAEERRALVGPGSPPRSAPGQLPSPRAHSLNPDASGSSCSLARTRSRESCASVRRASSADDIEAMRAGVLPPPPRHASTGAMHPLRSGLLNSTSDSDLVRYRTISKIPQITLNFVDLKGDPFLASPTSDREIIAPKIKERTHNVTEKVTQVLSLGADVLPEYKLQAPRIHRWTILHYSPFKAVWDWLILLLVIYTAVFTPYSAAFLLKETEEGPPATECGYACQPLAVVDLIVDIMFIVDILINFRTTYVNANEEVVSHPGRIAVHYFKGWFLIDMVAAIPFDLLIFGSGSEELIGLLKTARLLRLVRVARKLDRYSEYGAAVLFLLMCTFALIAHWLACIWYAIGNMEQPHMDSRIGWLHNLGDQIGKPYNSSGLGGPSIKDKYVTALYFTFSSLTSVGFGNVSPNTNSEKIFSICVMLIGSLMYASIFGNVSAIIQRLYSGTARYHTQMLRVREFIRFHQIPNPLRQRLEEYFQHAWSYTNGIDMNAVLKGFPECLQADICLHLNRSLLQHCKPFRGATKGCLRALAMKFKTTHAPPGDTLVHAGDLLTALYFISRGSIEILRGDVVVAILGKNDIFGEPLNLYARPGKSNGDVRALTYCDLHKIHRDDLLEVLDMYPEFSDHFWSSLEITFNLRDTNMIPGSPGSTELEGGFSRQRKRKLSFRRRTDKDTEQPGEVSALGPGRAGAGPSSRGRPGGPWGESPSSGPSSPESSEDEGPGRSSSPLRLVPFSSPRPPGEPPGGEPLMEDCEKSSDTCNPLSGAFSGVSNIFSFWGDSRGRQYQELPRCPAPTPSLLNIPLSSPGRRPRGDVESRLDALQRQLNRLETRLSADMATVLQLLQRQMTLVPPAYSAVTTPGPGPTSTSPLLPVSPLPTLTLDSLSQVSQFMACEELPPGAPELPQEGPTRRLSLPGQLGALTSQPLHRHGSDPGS
histone deacetylase, subtype 1 (HDAC1), sequence (Q13547 whole entry): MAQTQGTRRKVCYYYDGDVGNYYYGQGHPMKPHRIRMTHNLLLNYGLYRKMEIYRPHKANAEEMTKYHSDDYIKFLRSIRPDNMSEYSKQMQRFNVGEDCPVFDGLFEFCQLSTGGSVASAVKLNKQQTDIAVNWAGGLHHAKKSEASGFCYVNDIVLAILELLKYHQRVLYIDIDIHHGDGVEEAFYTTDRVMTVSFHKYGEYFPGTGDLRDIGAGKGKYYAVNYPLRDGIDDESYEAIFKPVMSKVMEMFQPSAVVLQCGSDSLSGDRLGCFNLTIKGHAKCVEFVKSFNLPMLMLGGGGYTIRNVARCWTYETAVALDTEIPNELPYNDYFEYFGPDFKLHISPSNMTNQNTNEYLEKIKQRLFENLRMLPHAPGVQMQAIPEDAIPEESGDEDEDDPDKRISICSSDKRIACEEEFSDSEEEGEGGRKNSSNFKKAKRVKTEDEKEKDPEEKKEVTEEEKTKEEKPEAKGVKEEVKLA
CYP2C9, sequence (P11712 whole entry): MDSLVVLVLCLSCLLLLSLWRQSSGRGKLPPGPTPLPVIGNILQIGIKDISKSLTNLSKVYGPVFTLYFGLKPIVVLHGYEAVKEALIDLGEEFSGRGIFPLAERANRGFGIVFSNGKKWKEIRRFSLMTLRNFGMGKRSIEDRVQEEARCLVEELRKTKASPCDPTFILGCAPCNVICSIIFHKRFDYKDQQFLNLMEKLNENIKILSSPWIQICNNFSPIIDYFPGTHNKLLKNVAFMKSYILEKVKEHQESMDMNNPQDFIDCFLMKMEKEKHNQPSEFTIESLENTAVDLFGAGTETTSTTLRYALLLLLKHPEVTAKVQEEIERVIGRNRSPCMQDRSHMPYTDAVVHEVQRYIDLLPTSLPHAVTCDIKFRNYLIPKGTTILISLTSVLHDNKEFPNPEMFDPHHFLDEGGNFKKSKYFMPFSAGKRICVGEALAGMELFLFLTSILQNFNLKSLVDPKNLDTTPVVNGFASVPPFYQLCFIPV
CYP3A4, sequence (P08684 whole entry): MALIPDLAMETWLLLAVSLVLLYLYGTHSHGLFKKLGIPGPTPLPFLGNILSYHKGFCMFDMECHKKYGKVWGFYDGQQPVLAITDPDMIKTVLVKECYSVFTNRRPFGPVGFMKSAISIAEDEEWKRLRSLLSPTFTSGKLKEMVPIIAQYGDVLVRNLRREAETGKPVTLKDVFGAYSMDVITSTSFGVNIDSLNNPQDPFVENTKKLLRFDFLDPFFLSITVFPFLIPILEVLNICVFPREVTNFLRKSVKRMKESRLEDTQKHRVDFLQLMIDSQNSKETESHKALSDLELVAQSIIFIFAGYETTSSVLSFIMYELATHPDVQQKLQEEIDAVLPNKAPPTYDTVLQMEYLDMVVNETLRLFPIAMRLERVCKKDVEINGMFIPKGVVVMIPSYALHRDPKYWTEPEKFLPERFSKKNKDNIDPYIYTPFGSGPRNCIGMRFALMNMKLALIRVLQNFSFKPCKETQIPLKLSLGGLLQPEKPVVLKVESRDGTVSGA
CYP2D6, sequence (P10635 whole entry): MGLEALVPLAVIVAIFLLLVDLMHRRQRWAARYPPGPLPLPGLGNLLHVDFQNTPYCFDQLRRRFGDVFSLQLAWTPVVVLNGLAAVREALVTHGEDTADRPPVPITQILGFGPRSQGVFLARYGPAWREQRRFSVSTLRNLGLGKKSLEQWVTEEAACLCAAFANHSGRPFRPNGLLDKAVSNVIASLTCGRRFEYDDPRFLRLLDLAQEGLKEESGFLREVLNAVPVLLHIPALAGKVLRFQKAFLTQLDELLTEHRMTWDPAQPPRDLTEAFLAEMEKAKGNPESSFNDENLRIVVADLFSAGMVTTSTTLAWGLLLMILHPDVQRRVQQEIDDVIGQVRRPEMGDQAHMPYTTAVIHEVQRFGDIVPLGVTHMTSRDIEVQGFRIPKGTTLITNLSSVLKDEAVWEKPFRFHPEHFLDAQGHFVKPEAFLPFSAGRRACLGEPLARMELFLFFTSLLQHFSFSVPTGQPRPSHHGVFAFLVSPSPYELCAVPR

As to `Nc1ccc(-c2ccccc2)cc1NC(=O)c1ccc(CNC(=O)C2CCCCC2)cc1` [Example 14i], the “% MK-499 Binding Inhibition @ 10 μM” value in series [1] turned out to be 30%. The compound also returned a GI50 in series [2] of 335 nM. Besides, in series [3], the “% CYP Inhibition @ 10 μM 2D6” value is 17%. Besides, in series [4], the “% CYP Inhibition @ 10 μM 2C9” value stood at 32%. In series [5], the “% CYP Inhibition @ 10 μM 3A4” value stood at 12%. Also, the IC50 in series [6] (setting [8]) turned out to be 20 nM.
In series [2], `Nc1ccc(-c2ccccc2)cc1NC(=O)c1ccc(CNC(=O)OCc2cccnc2)cc1` [Example 2a] registered a GI50 of 225 nM.
Regarding `CCC(=O)NCc1ccc(C(=O)Nc2cc(-c3ccccc3)ccc2N)cc1` [Example 14h], the “% MK-499 Binding Inhibition @ 10 μM” value in series [1] worked out at 24%. In series [2], the GI50 was 150 nM. Also, in series [3], the “% CYP Inhibition @ 10 μM 2D6” value came to 38%. Besides, the “% CYP Inhibition @ 10 μM 2C9” value in series [4] is recorded as 28%. Moreover, in series [5], the “% CYP Inhibition @ 10 μM 3A4” value is recorded as 30%. In series [6] (setting [8]), the IC50 was 10 nM.
Consider `CCOC(=O)NCc1ccc(C(=O)Nc2cc(-c3ccccc3)ccc2N)cc1` [Example 14e], for which, in series [1], the “% MK-499 Binding Inhibition @ 10 μM” value came out at 40%. In series [2], the GI50 amounted to 230 nM. Further, the “% CYP Inhibition @ 10 μM 2D6” value in series [3] is given as 26%. Besides, in series [4], the “% CYP Inhibition @ 10 μM 2C9” value came to 35%. Moreover, the “% CYP Inhibition @ 10 μM 3A4” value in series [5] was found to be 22%. The IC50 in series [6] (setting [8]) was 13 nM.
Turning to `CN(C)S(=O)(=O)NCc1ccc(C(=O)Nc2cc(-c3cccs3)ccc2N)cc1` [Example 60, N-[2-amino-5-(2-thienyl)phenyl]-4-({[(dimethylamino)sulfonyl]amino}methyl)benzamide], the results for the IC50 in series [7] and in series [6] (setting [9]) were 260 nM and 17 nM, respectively.
Turning to `COC(=O)NCc1ccc(C(=O)Nc2cc(-c3ccccc3)ccc2N)cc1` [Example 14f], in series [1], the “% MK-499 Binding Inhibition @ 10 μM” value came out at 28%. Further, halving of growth in series [2] (GI50) required 230 nM. Besides, in series [3], the “% CYP Inhibition @ 10 μM 2D6” value is 49%. Also, the “% CYP Inhibition @ 10 μM 2C9” value in series [4] stood at 46%. In series [5], the “% CYP Inhibition @ 10 μM 3A4” value is recorded as 23%.
Turning to `CCCC(=O)NCc1ccc(C(=O)Nc2cc(-c3ccccc3)ccc2N)cc1` [Example 14g], in series [1], the “% MK-499 Binding Inhibition @ 10 μM” value turned out to be 38%. This compound showed a GI50 in series [2] of 220 nM. Further, the “% CYP Inhibition @ 10 μM 2D6” value in series [3] is 28%. Besides, in series [4], the “% CYP Inhibition @ 10 μM 2C9” value worked out at 27%. Moreover, the “% CYP Inhibition @ 10 μM 3A4” value in series [5] turned out to be 33%. Further, the IC50 in series [6] (setting [8]) was found to be 10 nM.
As to `Nc1ccc(-c2ccccc2)cc1NC(=O)c1ccc(CNC(=O)Cc2ccccn2)cc1` [Example 50, N-(4-aminobiphenyl-3-yl)-4-{[(pyridin-2-ylacetyl)amino]methyl}benzamide], the IC50 in series [7] was found to be 300 nM; in series [6] (setting [9]) it was 19 nM.
For `Nc1ccc(-c2cccs2)cc1NC(=O)c1ccc(CNC(=O)C2CCC2)cc1` [Example 43, N-[2-amino-5-(2-thienyl)phenyl]-4-{[(cyclobutylcarbonyl)amino]methyl}benzamide] the same measures were 130 nM and 11 nM.
Regarding `CC(=O)NCc1ccc(C(=O)Nc2cc(-c3ccccc3)ccc2N)cc1` [Example 23, 4-[(acetylamino)methyl]-N-(4-aminobiphenyl-3-yl)benzamide], the IC50 in series [7] was 320 nM; in series [6] (setting [9]), 18 nM.
As for `Nc1ccc(-c2cccc(F)c2)cc1NC(=O)c1ccc(CNc2ccncc2)cc1` [Example 68, N-(4-amino-3′-fluoro-3-biphenylyl)-4-[(4-pyridinylamino)methyl]benzamide], the IC50 in series [7] was 9100 nM; in series [6] (setting [9]), 27 nM.
In the same order, the values of `Nc1ccc(-c2ccccc2)cc1NC(=O)c1ccc(CNC(=O)Cc2ccncc2)cc1` [Example 52, N-(4-aminobiphenyl-3-yl)-4-{[(pyridin-4-ylacetyl)amino]methyl}benzamide] are 250 nM and 15 nM.
For `Nc1ccc(-c2cccs2)cc1NC(=O)c1ccc(CNC(=O)Oc2ccccc2)cc1` [Example 21, phenyl {[4-({[2-amino-5-(2-thienyl)phenyl]amino}carbonyl)phenyl]methyl}carbamate] the same measures were 640 nM and 77 nM.
In the case of `Nc1ccc(-c2ccccc2)cc1NC(=O)c1ccc(CNC(=O)OCc2ccccn2)cc1` [Example 59, pyridin-2-ylmethyl[(4-{[(4-aminobiphenyl-3-yl)amino]carbonyl}phenyl)methyl]carbamate], the IC50 in series [7] was 440 nM; in series [6] (setting [9]), 20 nM.
Turning to `Nc1ccc(-c2ccccc2)cc1NC(=O)c1ccc(CNC(=O)C2CC2)cc1` [Example 26, N-(4-aminobiphenyl-3-yl)-4-{[(cyclopropylcarbonyl)amino]methyl}benzamide], the values for the IC50 in series [7] and in series [6] (setting [9]) were 170 nM and 15 nM, respectively.
For `Nc1ccc(-c2ccccc2F)cc1NC(=O)c1ccc(CNc2ccncc2)cc1` [Example 67, N-(4-amino-2′-fluoro-3-biphenylyl)-4-[(4-pyridinylamino)methyl]benzamide] the same measures were 2100 nM and 23 nM.
For `Nc1ccc(-c2cccs2)cc1NC(=O)c1ccc(CNC(=O)CCc2ccccc2)cc1` [Example 44, N-[2-amino-5-(2-thienyl)phenyl]-4-{[(3-phenylpropanoyl)amino]methyl}benzamide] the same measures were 200 nM and 24 nM.
In the same order, the values of `Nc1ccc(-c2ccccc2)cc1NC(=O)c1ccc(CNC(=O)Cc2cccnc2)cc1` [Example 51, N-(4-aminobiphenyl-3-yl)-4-{[(pyridin-3-ylacetyl)amino]methyl}benzamide] are 2100 nM and 140 nM.
Turning to `CC(=O)N(Cc1ccc(C(=O)Nc2cc(-c3cccs3)ccc2N)cc1)Cc1cn(C)nn1` [Example 123, 4-({Acetyl[(1-methyl-1H-1,2,3-triazol-4-yl)methyl]amino}methyl)-N-[2-amino-5-(2-thienyl)phenyl]benzamide], the IC50 stood at 87 nM in series [7] and 9.5 nM in series [6] (setting [9]).
In the same order, the values of `Nc1ccc(-c2cccs2)cc1NC(=O)c1ccc(CNC(=O)Cc2cccnc2)cc1` [Example 49, N-[2-amino-5-(2-thienyl)phenyl]-4-{[(pyridin-3-ylacetyl)amino]methyl}benzamide] are 170 nM and 10 nM.
`COCC(C)NCc1ccc(C(=O)Nc2cc(-c3ccccc3)ccc2N)cc1` (stereo not shown) [Example 66, N-(4-amino-3-biphenylyl)-4-{[(2-methoxy-1-methylethyl)amino]methyl}benzamide]: the IC50 in series [7] came to 1100 nM; in series [6] (setting [9]), 23 nM.
In the same order, the values of `Cc1csc(-c2ccc(N)c(NC(=O)c3ccc(CNc4ccncc4)cc3)c2)c1` [Example 69, N-[2-amino-5-(4-methyl-2-thienyl)phenyl]-4-[(4-pyridinylamino)methyl]benzamide] are 9700 nM and 15 nM.
As for `Nc1ccc(-c2cccs2)cc1NC(=O)c1ccc(CNC(=O)Cc2ccccn2)cc1` [Example 54, N-[2-amino-5-(2-thienyl)phenyl]-4-{[(pyridin-2-ylacetyl)amino]methyl}benzamide], the IC50 in series [7] came out at 160 nM; in series [6] (setting [9]) it was 12 nM.
In the same order, the values of `Nc1ccc(-c2ccccc2)cc1NC(=O)c1ccc(CNC(=O)C2CCCC2)cc1` [Example 33, N-(4-aminobiphenyl-3-yl)-4-{[(cyclopentylcarbonyl)amino]methyl}benzamide] are 200 nM and 21 nM.
For `Nc1ccc(-c2cccs2)cc1NC(=O)c1ccc(CNC(=O)[C@@H]2CCCN2)cc1` [Example 57, (2S)-N-[4-({[2-amino-5-(2-thienyl)phenyl]amino}carbonyl)benzyl]pyrrolidine-2-carboxamide] the same measures were 280 nM and 18 nM.
For `CCOC(=O)NCc1ccc(C(=O)Nc2cc(-c3cccs3)ccc2N)cc1` [Example 16, ethyl {[4-({[2-amino-5-(2-thienyl)phenyl]amino}carbonyl)phenyl]methyl}carbamate] the same measures were 130 nM and 12 nM.

For orientation: GI50 means the concentration that inhibits growth by half. Read a high GI50 as lower sensitivity of the cells.
